The results in this text go back to patent US8377967B2, “Piperidine derivative” (Nippon Zoki Pharmaceutical Co., Ltd., priority 2008, dated 2013).

The subject of experiment [1] is histamine-induced vascular hyperpermeability reaction. Nature of the experiment: Rat histamine-induced vascular hyperpermeability reaction (in vivo antihistamine action). The settings on record: SD male rat, oral administration 1 hour before intracutaneous histamine, leaked Evans Blue pigment. As to the method:
An SD male rat (SPF) of 180 g in weight was previously fed for one week or more by allowing the rat to take a solid feed and tap water ad libitum, under the environment setting of a temperature of 22° C., humidity of 55% and an artificial illumination of 12 hours a day (light phase 8 am to 8 pm), and the rat was fasted overnight to be used for the experiment. Histamine•dihydrochloride (hereinafter referred to as histamine) and Evans Blue were used by dissolving each in physiological saline upon use. A substance to be tested was dissolved in water for injection or suspended in 0.5% carboxymethyl cellulose sodium, and the rat was orally administered with the solution or suspension (dose volume: 5 mL/kg body weight). After 1 hour from the administration, the physiological saline and the histamine solution were each intracutaneously injected to two locations (20 μg/0.05 ml/location) each on a back part of the rat of which hair was sheared with an electric clipper while anesthetizing with an ether. A 0.5% Evans Blue-containing physiological saline was injected intravenously to the tail of the rat (1 mL/200 g body weight) immediately before the intracutaneous injection of the histamine.
After 30 minutes, the animal was decapitated, and allowed to bleed lethally, and the skin was removed to measure an amount of leaked pigment in the blue-stained portion. The measurement of the amount of leaked pigment was carried out as follows. Skins of the pigment leaking site were cut out at two locations, 1 mL of a 2 mol/L aqueous potassium hydroxide solution was added thereto in a test tube, and the test tube was allowed to stand overnight at 37° C. to dissolve. Thereafter, 6 mL of a 1:3 mixed solution of 0.67 mol/L phosphoric acid and acetone was added to the solution, and the mixture was vigorously shaken for 10 minutes. Thereafter, the mixture was filtered, and the absorbance of the filtrate at 620 nm was measured. The absorbance obtained from the two locations of the sites injected with physiological saline, as blank value, was used for a compensation. The amount of leaked pigment was calculated from the calibration curve of Evans Blue at 620 nm.

In a further experiment the target is T1, cerebral H1 receptor (Mus musculus, UniProt P70174).
T1 construct: the entire brain, except for cerebellum and medulla oblongatae, was rapidly excised; from tissue; host or cells: brain homogenate (without cerebellum and medulla oblongata) of orally dosed ICR male mice
Nature of the experiment: Murine cerebral H1 receptor occupying content (ex vivo). The settings on record: for ED50: ICR male mouse, oral administration, brain excised after 1 hour, 3H-pyrilamine binding in brain homogenate, larger = lower brain transfer, read-out: ID50 (the source's name); for ID50 (mg/kg)/ ED50 (mg/kg): ID50 of cerebral receptor binding test (Table 20) divided by ED50 of vascular hyperpermeability test (Table 19). The format is in vivo. As to the method: A 6-week-old ICR male mouse was previously fed for one week or more by allowing the mouse to take a solid feed and tap water ad libitum, under the environment setting of a temperature of 22° C., humidity of 55% and an artificial illumination of 12 hours a day, and the mouse was fasted overnight to be used for the experiment. A substance to be tested was dissolved with water for injection or suspended in 0.5% carboxymethyl cellulose solution, and the solution or suspension was orally administered to the mouse (dose volume: 0.1 mL/10 g body weight). After 1 hour from the oral administration, the mouse was decapitated, and the entire brain, except for cerebellum and medulla oblongatae, was rapidly excised. The excised brain tissue was homogenized with Polytron (manufactured by Kinematica) in an ice-cooled 50 mmol/L phosphate buffered saline (pH 7.4, 100 mg/1.9 mL).
To a test tube for reaction (TPX-Tube) were added 180 μL of the brain homogenate, and 10 μL of ^3H-pyrilamine solution (final concentration: 2 nmol/L) and 10 μL of a non-labeled pyrilamine solution (final concentration: 200 μmol/L) or a 50 mmol/L phosphate buffered saline, and the mixture was incubated at room temperature for 45 minutes, and 2.0 mL of an ice-cooled, 50 mmol/L phosphate buffered saline was then added thereto to stop the reaction. The reaction mixture was filtered with a GF/B filter (manufactured by […]), and the […] was placed in a vial and dried overnight at 60 degrees. After drying, 10 mL of a scintillator (AL-1, toluene-based, manufactured by DOJINDO LABORATORIES) was added to the product, and the disintegration per minute (dpm) was measured with a liquid scintillation counter (manufactured by Packard, U.S.A., TRI-CARB 2700TR) (5 minutes/vial).

T1 sequence (P70174 whole entry): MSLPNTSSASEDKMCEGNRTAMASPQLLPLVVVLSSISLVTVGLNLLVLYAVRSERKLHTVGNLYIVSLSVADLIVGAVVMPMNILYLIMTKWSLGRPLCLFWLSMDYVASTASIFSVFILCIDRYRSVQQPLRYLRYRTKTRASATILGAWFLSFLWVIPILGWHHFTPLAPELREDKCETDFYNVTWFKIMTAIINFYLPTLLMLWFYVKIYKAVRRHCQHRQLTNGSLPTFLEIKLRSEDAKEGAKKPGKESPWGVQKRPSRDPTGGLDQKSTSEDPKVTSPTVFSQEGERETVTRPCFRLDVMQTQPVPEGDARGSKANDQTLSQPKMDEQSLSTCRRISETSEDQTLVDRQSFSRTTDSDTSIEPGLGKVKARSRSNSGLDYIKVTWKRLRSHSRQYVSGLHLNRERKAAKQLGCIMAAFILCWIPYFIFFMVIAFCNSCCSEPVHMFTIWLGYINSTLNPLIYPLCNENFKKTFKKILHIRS

The compound `CN1CCC(=C2c3ccccc3CCc3sc(C(=O)O)cc32)CC1.Cl` [Compound 4, [4-(1-Methylpiperidin-4-ylidene)-9,10-dihydro-4H-1-thiabenzo[f]azulen-2-yl]carboxylic acid hydrochloride] yielded an ED50 in experiment [1] of 0.69 mg/kg. In addition, on cerebral H1 receptor, the ED50 stood at 43.1 mg/kg and the “ID50 (mg/kg)/ ED50 (mg/kg)” value amounted to 62.5.

For the compound `CCOC(=O)C(C)(C)c1cc2c(s1)CCc1ccccc1C2=C1CCNCC1.Cl` [Compound 152, Ethyl 2-methyl-2-(4-piperidin-4-ylidene-9,10-dihydro-4H-1-thiabenzo[f]azulen-2-yl)propionate hydrochloride], in experiment [1], the ED50 amounted to 1.49 mg/kg. Further, on cerebral H1 receptor, the ED50 is 199 mg/kg and the “ID50 (mg/kg)/ ED50 (mg/kg)” value is recorded as 133.8.

As to `CN1CCC(=C2c3cc(CC(=O)O)ccc3OCc3ccsc32)CC1.Cl` [Compound 54, [4-(1-Methylpiperidin-4-ylidene)-4,10-dihydro-9-oxa-3-thiabenzo[f]azulen-6-yl]acetic acid hydrochloride], the results for the ED50 (in experiment [1]; on cerebral H1 receptor) were 0.027 mg/kg and 9.3 mg/kg, respectively. The “ID50 (mg/kg)/ ED50 (mg/kg)” value on cerebral H1 receptor is 344.4.

In experiment [1], `CC(=O)CCCN1CCC(=C2c3cc(CC(=O)O)ccc3OCc3ccsc32)CC1` [Compound 170, {4-[1-(4-Oxopentyl)piperidin-4-ylidene]-4,10-dihydro-9-oxa-3-thiabenzo[f]azulen-6-yl}acetic acid] showed an ED50 of 0.614 mg/kg. At cerebral H1 receptor, the ED50 was 70.3 mg/kg and the “ID50 (mg/kg)/ ED50 (mg/kg)” value is reported as 114.5.

Take `O=C(O)CCc1cc2c(s1)C=Cc1ccccc1C2=C1CCNCC1` [Compound 209, 3-(4-Piperidin-4-ylidene-4H-1-thiabenzo[f]azulen-2-yl)propionic acid]: the ED50 in experiment [1] was 0.42 mg/kg. On cerebral H1 receptor, the ED50 is > 200 mg/kg and the “ID50 (mg/kg)/ ED50 (mg/kg)” value is >476.2.

In the case of `CCOC(=O)Cc1ccc2c(c1)C(=C1CCNCC1)c1sccc1CO2.Cl` [Compound 113, Ethyl (4-piperidin-4-ylidene-4,10-dihydro-9-oxa-3-thiabenzo[f]azulen-6-yl)acetate hydrochloride], the ED50 in experiment [1] turned out to be 0.072 mg/kg; at cerebral H1 receptor it was 98.7 mg/kg. Also, the “ID50 (mg/kg)/ ED50 (mg/kg)” value at cerebral H1 receptor came to 1370.8.

In experiment [1], `O=C(O)Cc1ccc2c(c1)C(=C1CCN(CCCO)CC1)c1sccc1CO2` [Compound 139, {4-[1-(3-Hydroxypropyl)piperidin-4-ylidene]-4,10-dihydro-9-oxa-3-thiabenzo[f]azulen-6-yl}acetic acid] registered an ED50 of 2.24 mg/kg. In addition, on cerebral H1 receptor, the ED50 is > 200 mg/kg and the “ID50 (mg/kg)/ ED50 (mg/kg)” value is recorded as >89.3.

In the case of `COC(=O)CCCc1ccc2c(c1)C(=C1CCNCC1)c1sccc1CO2.Cl` [Compound 135, Methyl 4-(4-piperidin-4-ylidene-4,10-dihydro-9-oxa-3-thiabenzo[f]azulen-6-yl)butyrate hydrochloride], in experiment [1], the ED50 was found to be 2.33 mg/kg. On cerebral H1 receptor, the ED50 was > 200 mg/kg and the “ID50 (mg/kg)/ ED50 (mg/kg)” value is listed as >85.8.

In experiment [1], `CC(OC(=O)Cc1ccc2c(c1)C(=C1CCNCC1)c1sccc1CO2)OC(=O)OC1CCCCC1.Cl` (stereo not shown) [Compound 180, 1-Cyclohexyloxycarbonyloxyethyl (4-piperidin-4-ylidene-4,10-dihydro-9-oxa-3-thiabenzo[f]azulen-6-yl)acetate hydrochloride] showed an ED50 of 1.55 mg/kg. Further, at cerebral H1 receptor, the ED50 was > 200 mg/kg and the “ID50 (mg/kg)/ ED50 (mg/kg)” value was >129.0.

For the compound `CN1CCC(=C2c3cc(CC(=O)O)ccc3OCc3sccc32)CC1` [Compound 117, [4-(1-Methylpiperidin-4-ylidene)-4,10-dihydro-9-oxa-1-thiabenzo[f]azulen-6-yl]acetic acid], the figures for the ED50 (in experiment [1]; on cerebral H1 receptor) were 0.027 mg/kg and 4.2 mg/kg, respectively. Besides, the “ID50 (mg/kg)/ ED50 (mg/kg)” value at cerebral H1 receptor came to 155.6.

In turn, `CN1CCC(=C2c3cc(C=CC(=O)O)ccc3OCc3ccsc32)CC1` [Compound 35, 3-[4-(1-Methylpiperidin-4-ylidene)-4,10-dihydro-9-oxa-3-thiabenzo[f]azulen-6-yl]acrylic acid] displayed an ED50 in experiment [1] of 0.28 mg/kg. In addition, at cerebral H1 receptor, the ED50 stood at 28.4 mg/kg and the “ID50 (mg/kg)/ ED50 (mg/kg)” value is 101.4.

`CN1CCC(=C2c3cc(C(=O)O)ccc3OCc3ccsc32)CC1` [Compound 26, [4-(1-Methylpiperidin-4-ylidene)-4,10-dihydro-9-oxa-3-thiabenzo[f]azulen-6-yl]carboxylic acid]: the ED50 in experiment [1] is 0.059 mg/kg. Also, at cerebral H1 receptor, the ED50 was determined as 4.8 mg/kg and the “ID50 (mg/kg)/ ED50 (mg/kg)” value was determined as 81.4.

In experiment [1], `CC(=O)CN1CCC(=C2c3cc(CC(=O)O)ccc3OCc3ccsc32)CC1` [Compound 168, {4-[1-(2-Oxopropyl)piperidin-4-ylidene]-4,10-dihydro-9-oxa-3-thiabenzo[f]azulen-6-yl}acetic acid] came in with an ED50 of 0.264 mg/kg. Moreover, at cerebral H1 receptor, the ED50 was 10.4 mg/kg and the “ID50 (mg/kg)/ ED50 (mg/kg)” value is 39.4.

Compound `CN1CCC(=C2c3ccccc3CCc3sc(C(C)(C)C(=O)O)cc32)CC1` [Compound 65, 2-Methyl-2-[4-(1-methylpiperidin-4-ylidene)-9,10-dihydro-4H-1-thiabenzo[f]azulen-2-yl]propionic acid] yielded an ED50 in experiment [1] of 0.14 mg/kg. Besides, on cerebral H1 receptor, the ED50 was determined as 19.5 mg/kg and the “ID50 (mg/kg)/ ED50 (mg/kg)” value was 139.3.

`CN1CCC(=C2c3cc(SC(C)(C)C(=O)O)ccc3OCc3ccsc32)CC1.Cl` [Compound 190, 2-Methyl-2-[4-(1-methylpiperidin-4-ylidene)-4,10-dihydro-9-oxa-3-thiabenzo[f]azulen-6-ylsulfanyl]propionic acid hydrochloride] registered an ED50 in experiment [1] of 0.419 mg/kg. At cerebral H1 receptor, the ED50 was 73.2 mg/kg and the “ID50 (mg/kg)/ ED50 (mg/kg)” value was found to be 174.7.

For the compound `CCN1CCC(=C2c3cc(CC(=O)O)ccc3OCc3ccsc32)CC1` [Compound 128, [4-(1-Ethylpiperidin-4-ylidene)-4,10-dihydro-9-oxa-3-thiabenzo[f]azulen-6-yl]acetic acid], the ED50 in experiment [1] is ~0.1 mg/kg. At cerebral H1 receptor, the ED50 turned out to be 7.45 mg/kg and the “ID50 (mg/kg)/ ED50 (mg/kg)” value worked out at 74.5.

`COC(=O)Cc1ccc2c(c1)C(=C1CCN(CC(C)=O)CC1)c1sccc1CO2.Cl` [Compound 167, Methyl {4-[1-(2-oxopropyl)piperidin-4-ylidene]-4,10-dihydro-9-oxa-3-thiabenzo[f]azulen-6-yl}acetate hydrochloride]: the ED50 in experiment [1] came to 0.194 mg/kg; on cerebral H1 receptor it was 35.1 mg/kg. Also, the “ID50 (mg/kg)/ ED50 (mg/kg)” value at cerebral H1 receptor came to 180.9.

As for `CC(C)(C(=O)O)c1cc2c(s1)CCc1ccccc1C2=C1CCNCC1.Cl` [Compound 153, 2-Methyl-2-(4-piperidin-4-ylidene-9,10-dihydro-4H-1-thiabenzo[f]azulen-2-yl)propionic acid hydrochloride], the figures for the ED50 (in experiment [1]; on cerebral H1 receptor) were 2.61 mg/kg and > 200 mg/kg, respectively. Also, the “ID50 (mg/kg)/ ED50 (mg/kg)” value at cerebral H1 receptor is listed as >76.6.

As for `CCN1CCC(=C2c3ccccc3CCc3sc(C(=O)O)cc32)CC1.Cl` [Compound 108, [4-(1-Ethylpiperidin-4-ylidene)-9,10-dihydro-4H-1-thiabenzo[f]azulen-2-yl]carboxylic acid hydrochloride], the ED50 came to 1.16 mg/kg in experiment [1] and 110 mg/kg at cerebral H1 receptor. In addition, the “ID50 (mg/kg)/ ED50 (mg/kg)” value at cerebral H1 receptor came to 95.3.

`CN1CCC(=C2c3ccccc3CC(=O)c3sccc32)CC1` [Ketotifen, reference compound] returned an ED50 in experiment [1] of 0.54 mg/kg.
